Assay results as given in patent US20240208992A1, “MACROCYCLES AS CFTR MODULATORS” (Idorsia Pharmaceuticals Ltd, priority 2021, published 2024).

Biological target: human F508del-CFTR (Homo sapiens, UniProt P13569, DEL508-508)
Assay: F508del-CFTR cell surface expression (corrector activity), DiscoveRx ß-galactosidase complementation chemiluminescence assay in recombinant U2OS cell line;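 also: U2OS cells co-expressing ProLink-tagged F508del-CFTR and a membrane-anchored enzyme acceptor, where more surface CFTR restores β-galactosidase activity measured by chemiluminescence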
Conditions: for EC50: EC50, F508del-CFTR cell surface expression, U2OS cells, 16h compound incubation, geomean values; for Emax: in relation to Emax of corrector lumacaftor (=100%), arithmetic mean values

Sequence of human F508del-CFTR (P13569 with tags, fused parts or gaps DEL508-508): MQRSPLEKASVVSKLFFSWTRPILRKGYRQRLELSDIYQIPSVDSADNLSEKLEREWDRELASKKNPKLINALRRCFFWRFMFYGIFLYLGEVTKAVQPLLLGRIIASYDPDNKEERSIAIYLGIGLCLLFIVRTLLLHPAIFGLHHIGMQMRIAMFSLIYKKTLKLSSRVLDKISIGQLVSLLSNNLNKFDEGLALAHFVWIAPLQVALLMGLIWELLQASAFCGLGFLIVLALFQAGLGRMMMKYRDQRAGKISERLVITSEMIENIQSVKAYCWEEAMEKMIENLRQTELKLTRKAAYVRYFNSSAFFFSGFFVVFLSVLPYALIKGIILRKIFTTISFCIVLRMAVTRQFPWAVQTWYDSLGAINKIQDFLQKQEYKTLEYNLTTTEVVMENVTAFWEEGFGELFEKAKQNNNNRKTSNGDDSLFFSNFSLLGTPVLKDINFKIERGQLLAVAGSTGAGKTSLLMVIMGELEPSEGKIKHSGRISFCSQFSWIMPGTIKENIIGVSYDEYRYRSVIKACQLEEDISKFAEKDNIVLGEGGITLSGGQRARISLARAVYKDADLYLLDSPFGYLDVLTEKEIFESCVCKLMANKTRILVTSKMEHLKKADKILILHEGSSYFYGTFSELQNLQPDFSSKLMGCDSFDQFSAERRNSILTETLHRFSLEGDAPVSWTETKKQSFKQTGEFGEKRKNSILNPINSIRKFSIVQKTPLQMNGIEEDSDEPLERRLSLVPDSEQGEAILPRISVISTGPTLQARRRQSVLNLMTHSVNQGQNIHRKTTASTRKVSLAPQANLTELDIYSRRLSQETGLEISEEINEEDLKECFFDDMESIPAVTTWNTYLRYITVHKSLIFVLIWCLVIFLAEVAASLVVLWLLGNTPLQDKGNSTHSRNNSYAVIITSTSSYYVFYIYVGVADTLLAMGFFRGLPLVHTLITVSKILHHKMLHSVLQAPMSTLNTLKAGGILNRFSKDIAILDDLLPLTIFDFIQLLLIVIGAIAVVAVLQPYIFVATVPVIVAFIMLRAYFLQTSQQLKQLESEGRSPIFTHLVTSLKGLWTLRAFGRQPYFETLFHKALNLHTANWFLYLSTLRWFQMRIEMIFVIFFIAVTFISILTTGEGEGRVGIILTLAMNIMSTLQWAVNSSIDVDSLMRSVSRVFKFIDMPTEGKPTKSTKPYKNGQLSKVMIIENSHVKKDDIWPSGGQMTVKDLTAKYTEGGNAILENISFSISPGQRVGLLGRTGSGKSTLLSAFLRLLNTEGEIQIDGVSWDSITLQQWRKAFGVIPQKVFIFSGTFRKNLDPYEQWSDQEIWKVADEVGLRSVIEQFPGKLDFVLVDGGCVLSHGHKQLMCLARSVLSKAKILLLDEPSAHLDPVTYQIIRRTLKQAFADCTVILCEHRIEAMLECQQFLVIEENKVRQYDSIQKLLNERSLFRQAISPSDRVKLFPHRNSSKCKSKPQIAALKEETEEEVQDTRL

Row | EC50 [nM] | Emax (U2OS) [%] | SMILES | Emax [%]
1 | 368 | 334 | COc1nccc2c1C(=O)N[C@H](C(=O)NCCc1cc(C)no1)CC(=O)N(C)[C@@H](CC(C)C)C(=O)N1CCN(c3ccccc3)C[C@@H]1C(=O)N[C@H](Cc1ccccc1)CO2 [Example 542, (7S,11S,20R,22aR)-20-benzyl-7-isobutyl-14-methoxy-8-methyl-N-(2-(3-methylisoxazol-5-yl)ethyl)-6,9,13,22-tetraoxo-2-phenyl-1,3,4,6,7,8,9,10,11,12,13,19,20,21,22,22a-hexadecahydro-2H-pyrazino[2,1-f]pyrido[3,4-p][1]oxa[4,7,10,14]tetraazacycloheptadecine-11-carboxamide] | 
2 | 785 | 399 | CC(C)C[C@H]1C(=O)N(C)C2(CC2)C(=O)N[C@H](Cc2ccccc2)COc2ccc3ncccc3c2C(=O)N[C@H](C(=O)NCCc2cc(C3CC3)no2)CC(=O)N1C [Example 543, (3′S,7′S,13′R)-13′-benzyl-N-(2-(3-cyclopropylisoxazol-5-yl)ethyl)-7′-isobutyl-6′,9′-dimethyl-1′,5′,8′,11′-tetraoxo-2′,3′,4′,5′,6′,7′,8′,9′,11′,12′,13′,14′-dodecahydro-1′H-spiro[cyclopropane-1,10′-[1]oxa[4,7,10,14]tetraazacycloheptadecino[16,17-f]quinoline]-3′-carboxamide] | 
3 | 349 | 385 | CC(C)C[C@H]1C(=O)N(C)C2(CC2)C(=O)N[C@H](Cc2ccccc2)COc2ccc3ncc(F)cc3c2C(=O)N[C@H](C(=O)NCCc2cc(C3CC3)no2)CC(=O)N1C [Example 545, (3′S,7′S,13′R)-13′-benzyl-N-(2-(3-cyclopropylisoxazol-5-yl)ethyl)-20′-fluoro-7′-isobutyl-6′,9′-dimethyl-1′,5′,8′,11′-tetraoxo-2′,3′,4′,5′,6′,7′,8′,9′,11′,12′,13′,14′-dodecahydro-1′H-spiro[cyclopropane-1,10′-[1]oxa[4,7,10,14]tetraazacycloheptadecino[16,17-f]quinoline]-3′-carboxamide] | 
4 | 281 | 330 | Cc1cc(CCNC(=O)[C@@H]2CC(=O)N(C)[C@@H](CC(C)C)C(=O)N(C)[C@H](C(C)C)C(=O)N[C@H](Cc3ccccc3)COc3cnc4ccccc4c3C(=O)N2)on1 [Example 547, (3S,7S,10R,13R)-13-benzyl-7-isobutyl-10-isopropyl-6,9-dimethyl-N-(2-(3-methylisoxazol-5-yl)ethyl)-1,5,8,11-tetraoxo-1,2,3,4,5,6,7,8,9,10,11,12,13,14-tetradecahydro-[1]oxa[4,7,10,14]tetraazacycloheptadecino[17,16-c]quinoline-3-carboxamide] | 
5 | 106 | 326 | Cc1cc(CCNC(=O)[C@@H]2CC(=O)N(C)[C@@H](CC(C)C)C(=O)N(C)[C@H](CC(C)C)C(=O)N[C@H](Cc3ccccc3)COc3cnc4ccccc4c3C(=O)N2)on1 [Example 548, (3S,7S,10R,13R)-13-benzyl-7,10-diisobutyl-6,9-dimethyl-N-(2-(3-methylisoxazol-5-yl)ethyl)-1,5,8,11-tetraoxo-1,2,3,4,5,6,7,8,9,10,11,12,13,14-tetradecahydro-[1]oxa[4,7,10,14]tetraazacycloheptadecino[17,16-c]quinoline-3-carboxamide] | 
6 | 687 | 129 | COc1nccc2c1C(=O)N[C@H](C(=O)NCCc1cc(C)no1)CC(=O)N(C)[C@@H](CC(C)C)C(=O)N1CCN(c3ccccc3)C[C@H]1C(=O)N[C@H](Cc1ccccc1)CO2 [Example 550, (7S,11S,20R,22aS)-20-benzyl-7-isobutyl-14-methoxy-8-methyl-N-(2-(3-methylisoxazol-5-yl)ethyl)-6,9,13,22-tetraoxo-2-phenyl-1,3,4,6,7,8,9,10,11,12,13,19,20,21,22,22a-hexadecahydro-2H-pyrazino[2,1-f]pyrido[3,4-p][1]oxa[4,7,10,14]tetraazacycloheptadecine-11-carboxamide] | 
7 | 413 | 358 | Cc1cc2ccc3c(c2o1)C(=O)N[C@H](C(=O)NCCc1cc(C2CC2)no1)CC(=O)N(C)[C@@H](CC(C)C)C(=O)N(C)C1(CC1)C(=O)N[C@H](Cc1ccccc1)CO3 [Example 552, (8R,14S,18S)-8-benzyl-N-(2-(3-cyclopropylisoxazol-5-yl)ethyl)-14-isobutyl-2,12,15-trimethyl-10,13,16,20-tetraoxo-7,8,9,10,13,14,15,16,17,18,19,20-dodecahydro-12H-spiro[benzofuro[7,6-p][1]oxa[4,7,10,14]tetraazacycloheptadecine-11,1′-cyclopropane]-18-carboxamide] | 
8 | 324 | 310 | Cc1cc2ccc3c(c2o1)C(=O)N[C@H](C(=O)NCCc1nc(C2CC2)no1)CC(=O)N(C)[C@@H](CC(C)C)C(=O)N(C)C1(CC1)C(=O)N[C@H](Cc1ccccc1)CO3 [Example 554, (8R,14S,18S)-8-benzyl-N-(2-(3-cyclopropyl-1,2,4-oxadiazol-5-yl)ethyl)-14-isobutyl-2,12,15-trimethyl-10,13,16,20-tetraoxo-7,8,9,10,13,14,15,16,17,18,19,20-dodecahydro-12H-spiro[benzofuro[7,6-p][1]oxa[4,7,10,14]tetraazacycloheptadecine-11,1′-cyclopropane]-18-carboxamide] | 

Row | SMILES | EC50 [nM] | Emax (U2OS) [%] | Emax [%]
9 | CC(C)C[C@H]1C(=O)N(C)[C@@H](CC2CCC(F)(F)CC2)C(=O)N[C@H](Cc2ccccc2)COc2cnc3ccc(F)cc3c2C(=O)N[C@H](C(=O)NCCc2noc(C3CC3)n2)CC(=O)N1C [Example 540, (3S,7S,10S,13R)-13-benzyl-N-(2-(5-cyclopropyl-1,2,4-oxadiazol-3-yl)ethyl)-10-((4,4-difluorocyclohexyl)methyl)-20-fluoro-7-isobutyl-6,9-dimethyl-1,5,8,11-tetraoxo-1,2,3,4,5,6,7,8,9,10,11,12,13,14-tetradecahydro-[1]oxa[4,7,10,14]tetraazacycloheptadecino[17,16-c]quinoline-3-carboxamide] | 269 |  | 256
10 | CC(C)C[C@H]1C(=O)N2CCCC[C@@H]2C(=O)N[C@H](Cc2ccccc2)COc2ccc3ncc(F)cc3c2C(=O)N[C@H](C(=O)NCCc2noc(C3CC3)n2)CC(=O)N1C [Example 541, (9S,13S,19aR,22R)-22-benzyl-N-(2-(5-cyclopropyl-1,2,4-oxadiazol-3-yl)ethyl)-5-fluoro-13-isobutyl-12-methyl-7,11,14,20-tetraoxo-7,8,9,10,11,12,13,14,17,18,19,19a,20,21,22,23-hexadecahydro-16H-pyrido[2′,1′:6,7][1]oxa[4,7,10,14]tetraazacycloheptadecino[16,17-f]quinoline-9-carboxamide] | 185 | 357 | 
11 | CC(C)C[C@H]1C(=O)N(C)C2(CC2)C(=O)N[C@H](Cc2ccccc2)COc2ccc3ncccc3c2C(=O)N[C@H](C(=O)NCCc2noc(C3CC3)n2)CC(=O)N1C [Example 544, (3′S,7′S,13′R)-13′-benzyl-N-(2-(5-cyclopropyl-1,2,4-oxadiazol-3-yl)ethyl)-7′-isobutyl-6′,9′-dimethyl-1′,5′,8′,11′-tetraoxo-2′,3′,4′,5′,6′,7′,8′,9′,11′,12′,13′,14′-dodecahydro-1′H-spiro[cyclopropane-1,10′-[1]oxa[4,7,10,14]tetraazacycloheptadecino[16,17-f]quinoline]-3′-carboxamide] | 774 | 398 | 
12 | CC(C)C[C@H]1C(=O)N(C)C2(CC2)C(=O)N[C@H](Cc2ccccc2)COc2ccc3ncc(F)cc3c2C(=O)N[C@H](C(=O)NCCc2noc(C3CC3)n2)CC(=O)N1C [Example 546, (3′S,7′S,13′R)-13′-benzyl-N-(2-(5-cyclopropyl-1,2,4-oxadiazol-3-yl)ethyl)-20′-fluoro-7′-isobutyl-6′,9′-dimethyl-1′,5′,8′,11′-tetraoxo-2′,3′,4′,5′,6′,7′,8′,9′,11′,12′,13′,14′-dodecahydro-1′H-spiro[cyclopropane-1,10′-[1]oxa[4,7,10,14]tetraazacycloheptadecino[16,17-f]quinoline]-3′-carboxamide] | 350 | 411 | 
13 | COc1cccc(CCNC(=O)[C@@H]2CC(=O)N(C)[C@@H](CC(C)C)C(=O)N3CCN(c4ccccc4)C[C@H]3C(=O)N[C@H](Cc3ccccc3)COc3ccnc(OC)c3C(=O)N2)c1 [Example 549, (7S,11S,20R,22aS)-20-benzyl-7-isobutyl-14-methoxy-N-(3-methoxyphenethyl)-8-methyl-6,9,13,22-tetraoxo-2-phenyl-1,3,4,6,7,8,9,10,11,12,13,19,20,21,22,22a-hexadecahydro-2H-pyrazino[2,1-f]pyrido[3,4-p][1]oxa[4,7,10,14]tetraazacycloheptadecine-11-carboxamide] | 166 | 167 | 
14 | COc1cccc(CCNC(=O)[C@@H]2CC(=O)N(C)[C@@H](CC(C)C)C(=O)N(C)C3(CC3)C(=O)N[C@H](Cc3ccccc3)COc3ccc4cc(C)oc4c3C(=O)N2)c1 [Example 551, (8R,14S,18S)-8-benzyl-14-isobutyl-N-(3-methoxyphenethyl)-2,12,15-trimethyl-10,13,16,20-tetraoxo-7,8,9,10,13,14,15,16,17,18,19,20-dodecahydro-12H-spiro[benzofuro[7,6-p][1]oxa[4,7,10,14]tetraazacycloheptadecine-11,1′-cyclopropane]-18-carboxamide] | 222 | 317 | 
15 | Cc1cc2ccc3c(c2o1)C(=O)N[C@H](C(=O)NCCc1noc(C2CC2)n1)CC(=O)N(C)[C@@H](CC(C)C)C(=O)N(C)C1(CC1)C(=O)N[C@H](Cc1ccccc1)CO3 [Example 553, (8R,14S,18S)-8-benzyl-N-(2-(5-cyclopropyl-1,2,4-oxadiazol-3-yl)ethyl)-14-isobutyl-2,12,15-trimethyl-10,13,16,20-tetraoxo-7,8,9,10,13,14,15,16,17,18,19,20-dodecahydro-12H-spiro[benzofuro[7,6-p][1]oxa[4,7,10,14]tetraazacycloheptadecine-11,1′-cyclopropane]-18-carboxamide] | 287 | 304 | 
